The target in data set [1] is T1, KRAS G12V (Homo sapiens, UniProt P01116, G12V).
T1 construct: K, N and HRAS G12V (full length) was cloned with Xho I and Bgl I to LgBit; expressed in transfected cells; host or cells: HeLa
The data set can be described thus: NanoBiT assay for RAS activation (KRAS G12V). To be noted: Biochemical and cell based activity. As for the experimental part:
N-terminal LgBiT and C-terminal SmBiT construct was purchased from Promega and K, N and HRAS G12V (full length) was cloned with Xho I and Bgl I to LgBit and CRAF Ras binding domain (1-149) was cloned with EcoRI and Bgl II to SmBit. For transfections, 1 μg or 2 μg of (12 well/6 well) plasmids were transfected into cells with 0.5 mM of PEI reagent in 100 μl or 200 μl PBS. One day after transfection, cells were harvested and seeded into 96 well white plates (Greiner) or 384 well white plate (Greiner). After an additional day the medium was changed to serum free DMEM and the cells were incubated for 2 h with the compounds according to the invention. NanoGlo assay was performed according to the manufacturer's instructions. The luminescence was measured using Tecan infinite (Tecan).

The target of data set [2] is T2, elF4A1 (Homo sapiens, UniProt P60842).
T2 construct: endogenous in cells; host or cells: HeLa
T2 sequence (P60842 whole entry): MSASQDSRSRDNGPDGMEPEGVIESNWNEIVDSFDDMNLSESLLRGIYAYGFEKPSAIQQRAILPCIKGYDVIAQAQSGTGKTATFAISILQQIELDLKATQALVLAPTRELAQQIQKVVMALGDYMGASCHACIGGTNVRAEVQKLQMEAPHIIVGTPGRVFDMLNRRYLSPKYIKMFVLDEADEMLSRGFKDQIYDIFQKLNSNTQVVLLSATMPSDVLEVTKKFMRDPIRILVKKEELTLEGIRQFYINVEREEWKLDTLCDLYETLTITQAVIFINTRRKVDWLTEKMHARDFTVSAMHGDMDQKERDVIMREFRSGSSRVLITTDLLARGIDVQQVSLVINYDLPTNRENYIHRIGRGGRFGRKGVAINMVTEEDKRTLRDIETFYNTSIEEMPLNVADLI
The data set can be described thus: Dual luciferase assay for cap dependent translation initiation (eIF4A). To be noted: Biochemical and cell based activity. The protocol:
Dual luciferase assay for Cap-dependent translation initiation was performed in HeLa cells transfected with pFR_HCV_xb. […] After incubation, Dual luciferase reporter assay was performed according to the manufacturer's instruction and the luminescence was measured using a multiplate reader. Data were normalized to cells transfected with the indicated mutant and exposed to DMSO for 24 h. DMSO-treated cells were set as 1. The bars represent mean±SD from 3 independent experiments. The dot plot indicate the value from each experiment.

The nature of data set [3]: In vitro DMPK: CLi Human. It is filed as in vitro ADME.

Each structure is given as a SMILES string.

A word on the IC50: it is the concentration that inhibits the measured activity by half.

T1 sequence (P01116 1-188 isoform P01116-2 G12V): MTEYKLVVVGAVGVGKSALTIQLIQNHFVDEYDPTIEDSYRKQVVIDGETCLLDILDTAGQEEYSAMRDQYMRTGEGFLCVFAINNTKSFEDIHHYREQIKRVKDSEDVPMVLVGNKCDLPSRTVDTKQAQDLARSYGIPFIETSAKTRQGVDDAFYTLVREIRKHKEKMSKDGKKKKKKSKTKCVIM

As to `COc1cc(OC)c2c(c1)O[C@@]1(c3ccc(Cl)cc3)[C@H](c3cccc(F)c3)C[C@H](NC(=O)N3CCS(=O)(=O)CC3)[C@@]21O` [Compound 39], the IC50 was found to be 32 nM in data set [1] and 39 nM in data set [2].

Regarding `COc1cc(OC)c2c(c1)O[C@@]1(c3ccc(Cl)cc3)[C@H](c3cccc(F)c3)C[C@H](NC(=O)NCCO)[C@@]21O` [Compound 42], the half-inhibitory concentration (IC50) in data set [1] stood at 48 nM; in data set [2], 54 nM.

For the molecule `COc1cc(OC)c2c(c1)O[C@@]1(c3ccc(C#N)cc3)[C@H](c3cccc(F)c3)C[C@H](NC(=O)N3CCN(C)CC3)[C@@]21O` [Compound 38], the concentration for half-maximal inhibition (IC50) in data set [1] and in data set [2] was 21 nM in each case.

Take `COc1cc(OC)c2c(c1)O[C@@]1(c3ccc(Cl)cc3)[C@H](c3cccc(F)c3)C[C@H](NC(=O)NC(C)C)[C@@]21O` (single isomer, unassigned) [Compound 8]: the 50% inhibitory concentration (IC50) worked out at 78 nM in data set [1] and 120 nM in data set [2]. Further, the “CLi Human” value in data set [3] came out at 31 µL/min/mg.

Turning to `COc1cc(OC)c2c(c1)O[C@@]1(c3ccc(C#N)cc3)[C@H](c3cccc(F)c3)C[C@H](NC(=O)N3CC4(COC4)C3)[C@@]21O` [Compound 47], the IC50 was 41 nM in data set [1] and 22 nM in data set [2].

As to `CCN(CC)C(=O)N[C@H]1C[C@@H](c2cccc(F)c2)[C@]2(c3ccc(Cl)cc3)Oc3cc(OC)cc(OC)c3[C@]12O` (single isomer, unassigned) [Compound 11], the IC50 turned out to be 94 nM in data set [1] and 75 nM in data set [2].

As to `COc1cc(OC)c2c(c1)O[C@@]1(c3ccc(Cl)cc3)[C@H](c3cccc(F)c3)C[C@H](NC(=O)N3CCN(C)CC3)[C@@]21O` (single isomer, unassigned) [Compound 2], the values for the half-inhibitory concentration (IC50) in data set [1] and in data set [2] were 79 nM and 84 nM, respectively. In data set [3], the “CLi Human” value came to 5.5 µL/min/mg.

In the case of `COc1cc(OC)c2c(c1)O[C@@]1(c3ccc(C#N)cc3)[C@H](c3cccc(F)c3)C[C@H](NC(=O)N3CCC3)[C@@]21O` [Compound 36], the IC50 in data set [1] worked out at 24 nM; in data set [2] it was 25 nM.

Consider `COc1cc(OC)c2c(c1)O[C@@]1(c3ccc(Cl)cc3)[C@H](c3cccc(F)c3)C[C@H](NC(=O)N3CC(N(C)C)C3)[C@@]21O` [Compound 41], for which the half-maximal inhibitory concentration (IC50) in data set [1] is 50 nM; in data set [2], 55 nM.

As to `COc1cc(OC)c2c(c1)O[C@@]1(c3ccc(Cl)cc3)[C@H](c3cccc(F)c3)C[C@H](NC(=O)N3CC4CCC(C3)N4C)[C@@]21O` [Compound 43], the 50% inhibitory concentration (IC50) came out at 57 nM in data set [1] and 80 nM in data set [2].

Consider `COc1cc(OC)c2c(c1)O[C@@]1(c3ccc(Cl)cc3)[C@H](c3cccc(F)c3)C[C@H](NC(=O)N3CCC(N(C)C)CC3)[C@@]21O` [Compound 40], for which the figures for the IC50 in data set [1] and in data set [2] were 97 nM and 143 nM, respectively.

With `COc1cc(OC)c2c(c1)O[C@@]1(c3ccc(C#N)cc3)[C@H](c3cccc(F)c3)C[C@H](NC(=O)N3CCOCC3)[C@@]21O` [Compound 37], the IC50 stood at 19 nM in data set [1] and 24 nM in data set [2]. The “CLi Human” value in data set [3] is 64 µL/min/mg.

Turning to `COc1cc(OC)c2c(c1)O[C@@]1(c3ccc(Cl)cc3)[C@H](c3cccc(F)c3)C[C@H](NC(=O)N3CCOCC3)[C@@]21O` [Compound 19], the IC50 in data set [1] was determined as 58 nM; in data set [2], 80 nM.

Regarding `COc1cc(OC)c2c(c1)O[C@@]1(c3ccc(Cl)cc3)[C@H](c3cccc(F)c3)C[C@H](NC(=O)N3CCCC3)[C@@]21O` (single isomer, unassigned) [Compound 5], the 50% inhibitory concentration (IC50) in data set [1] came out at 95 nM; in data set [2] it was 60 nM.

As for `COc1cc(OC)c2c(c1)OC1(c3ccc(Cl)cc3)[C@@H](c3cccc(F)c3)CC(NC(=O)N(C)C)C21O` (single isomer, unassigned) [Compound C2, reference compound], the 50% inhibitory concentration (IC50) turned out to be 55 nM in data set [1] and 63 nM in data set [2]. In addition, the “CLi Human” value in data set [3] is 290 µL/min/mg.
